Reference: patent US10351568B2, “Compositions and methods for enhancing proteasome activity” (President and Fellows of Harvard College, priority 2010, dated 2019)

Legend:
HEK293 cells = assay: MTT cell survival upon menadione oxidative stress, HEK293; assay type: cell-based, human; conditions: 6 hr, menadione 4 hr
MEFs and 293 cells = assay: Cell proliferation by real-time microscopy (confluency); assay type: cell-based
Usp14 = Usp14 (Homo sapiens, UniProt P54578); assay: Mass spectrometry analysis of IU1 inhibited Usp14; assay type: binding
Chain of Usp14 (P54578 whole entry): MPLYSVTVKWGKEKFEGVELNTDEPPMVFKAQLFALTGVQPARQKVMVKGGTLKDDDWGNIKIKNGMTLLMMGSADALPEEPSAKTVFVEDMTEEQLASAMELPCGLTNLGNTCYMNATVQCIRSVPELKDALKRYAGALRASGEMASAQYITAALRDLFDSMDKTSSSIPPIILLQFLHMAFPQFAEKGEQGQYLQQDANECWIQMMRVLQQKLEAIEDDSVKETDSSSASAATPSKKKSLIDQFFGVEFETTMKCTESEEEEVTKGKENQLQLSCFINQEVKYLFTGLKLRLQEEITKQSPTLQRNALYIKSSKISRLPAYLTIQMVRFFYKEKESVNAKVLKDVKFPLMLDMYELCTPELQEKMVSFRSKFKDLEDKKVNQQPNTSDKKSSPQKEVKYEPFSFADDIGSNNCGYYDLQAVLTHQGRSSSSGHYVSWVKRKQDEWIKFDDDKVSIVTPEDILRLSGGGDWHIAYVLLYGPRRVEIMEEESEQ

UbB, α6, α7 = assay: Quantitative RT-PCR of ubiquitin and proteasome subunit genes in MEFs; assay type: cell-based; conditions: +/+ and Usp14−/− MEFs, graded doses, 6 hr
MEF cells [1] = assay: TUNEL apoptosis assay; assay type: cell-based; conditions: 100 μM IU1, 6 hr
Experimental: (§1) Effects on cell viability became apparent at concentrations over 100 μM, well above the doses required to enhance the degradation of Tau, TDP-43, ataxin-3, and oxidized proteins (FIGS. 21-23).

Isopeptidase T (IsoT) = Isopeptidase T (IsoT) (Homo sapiens, UniProt P45974); assay: Isopeptidase T deubiquitinase activity; assay type: biochemical; conditions: 8 μM, 17 μM
Chain of Isopeptidase T (IsoT) (P45974 whole entry): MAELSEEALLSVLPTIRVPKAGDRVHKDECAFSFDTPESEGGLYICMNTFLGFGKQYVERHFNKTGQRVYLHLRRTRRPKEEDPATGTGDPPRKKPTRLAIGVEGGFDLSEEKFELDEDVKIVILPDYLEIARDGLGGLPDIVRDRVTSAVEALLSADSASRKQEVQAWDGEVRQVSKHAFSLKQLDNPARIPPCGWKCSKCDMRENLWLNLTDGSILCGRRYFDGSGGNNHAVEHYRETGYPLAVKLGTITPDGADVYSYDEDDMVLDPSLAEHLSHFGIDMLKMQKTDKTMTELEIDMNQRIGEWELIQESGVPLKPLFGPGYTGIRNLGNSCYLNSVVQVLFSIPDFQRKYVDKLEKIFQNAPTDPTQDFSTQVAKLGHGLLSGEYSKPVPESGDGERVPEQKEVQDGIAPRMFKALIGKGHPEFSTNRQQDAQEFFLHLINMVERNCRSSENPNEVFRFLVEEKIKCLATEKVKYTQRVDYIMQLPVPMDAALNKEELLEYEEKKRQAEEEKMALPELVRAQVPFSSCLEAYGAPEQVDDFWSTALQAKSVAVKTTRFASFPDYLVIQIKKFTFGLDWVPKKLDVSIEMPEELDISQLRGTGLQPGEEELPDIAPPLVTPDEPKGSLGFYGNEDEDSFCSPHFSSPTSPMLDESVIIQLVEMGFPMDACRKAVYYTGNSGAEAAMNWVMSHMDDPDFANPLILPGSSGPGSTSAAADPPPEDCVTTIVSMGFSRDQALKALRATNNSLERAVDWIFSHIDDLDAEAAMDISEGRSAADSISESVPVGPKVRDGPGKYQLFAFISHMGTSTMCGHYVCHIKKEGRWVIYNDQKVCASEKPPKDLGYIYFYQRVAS

[2] = molecular target: T1, Usp14-containing proteasomes (Homo sapiens, UniProt P54578); assay: In vitro Ubn-ClnB degradation assay; assay type: biochemical
T1 construct: GST (N, cleaved yes); made in house; host or cells: E. coli Rosetta 2 (DE3) for Usp14
From the text: (§2) The effect of Usp14 on the degradation of ubiquitinated substrates was examined using an in vitro degradation assay using the ubiquitin-dependent proteasome substrate polyubiquitinated cyclin B (Ubn-ClnB).
It was next tested whether IU1 could serve as an enhancer of substrate degradation by the proteasome.

oxidized proteins = assay: Oxidized protein accumulation after menadione (DNPH immunoblot); assay type: cell-based; conditions: MEFs, 75 μM IU1 4 hours, then 63 μM menadione 45 minutes
From the text: Oxidized proteins form another class of proteasome substrates that play an important role in human health. Harmful oxidized proteins accumulate upon ageing and are implicated in a variety of age-related diseases and disorders (Stadtman (2006) Protein oxidation and aging. Free Radic. Res. 40, 1250-1258; Ahmed et al. (2007) Protein oxidative modifications and replicative senescence of WI-38 human embryonic fibroblasts. Ann. NY Acad. Sci., 1119, 88-96; Moskovitz et al. (2001). Methionine sulfoxide reductase (MsrA) is a regulator of antioxidant defense and lifespan in mammals. Proc. Nat. Acad. Sci. USA, […], 12920-12925.). Protein oxidation was induced by treating cells with menadione, and oxidized species were visualized using an antibody specific for protein carbonyls. […] The cells were lysed and lysates were incubated with DNPH and immunoblotted with anti-DNPH antibody to assay for oxidized proteins.

[3] = Cellular entry, release and stability of compound (LC/MS, UV absorption)
From the text: Cell lysates were collected and ethyl acetate extraction was used to prepare mass spectrometer samples.

proteasome = assay: Proteasome integrity by native PAGE of total cell extracts; assay type: cell-based; conditions: 100 μM IU1, 6-hr
From the text: RP2-CP and RP-CP indicate distinct forms of the 26S proteasome.

[4] = Compound concentration in serum-containing media / release, 293 cells; assay type: in vitro ADME; conditions: 1 hr to 48 hr
Experimental: The experiment was performed as in FIG. 42A.

MEF cells [5] = assay: MTT cell survival upon menadione oxidative stress, MEF; assay type: cell-based
From the text: The effect on the IC50 for menadione is almost 4-fold.

murine Psmb5 promoter = assay: Psmb5 promoter luciferase reporter in MEFs; assay type: cell-based; conditions: wild-type and Usp14−/− MEFs, 25 or 50 μM, 8 hr
Experimental: For normalization of luciferase activity, a control experiment using the promoter-less pGL3 plasmid was performed. Values are mean±SD from three independent experiments. RLU, relative light units.

[6] = test system: MEF, HEK293 and HeLa cells; assay: MTT cell viability assay; assay type: cell-based; conditions: MTT after 6, 12, 24 or 48 hours
Experimental: as §1

[7] = molecular target: T2, proteasome-bound form of Uch37 (Homo sapiens, UniProt Q9Y5K5); assay: Ub-AMC hydrolysis by 26S proteasomes not treated with Ub-VS (lacking Usp14); assay type: biochemical
T2 construct: endogenous in cells

GFP-ODC = assay: Degradation of ubiquitin-independent proteasome substrate in cells; assay type: cell-based
Experimental: Proteasome inhibitors (30 μM MG132, 10 μM PS-341) were treated 4 hr before lysis.
(§3) Other proteins that have been implicated in proteotoxic mechanisms were also tested.

[8] = molecular target: T3, Usp14/proteasome complexes (Homo sapiens, UniProt P54578); assay: In vitro ubiquitin chain trimming assay with polyubiquitinated cyclin B; assay type: biochemical
T3 construct: GST (N, cleaved yes); made in house; host or cells: E. coli Rosetta 2 (DE3) for Usp14
Experimental: Immunoblot was performed using an antibody specific for human cyclin B (CCNB).
as §2
To separate chain trimming from substrate degradation, these assays were done in the presence of proteasome inhibitors. The effectiveness of the proteasome inhibitors is evidenced by the accumulation of unmodified cyclin B in the assay (FIG. 15).

Tau = Tau degradation in MEF cells (immunoblot, RT-PCR); assay type: cell-based
From the text: No effect was seen on Tau mRNA levels (FIG. 21B).

ataxin-3 = assay: Ataxin-3 depletion in MEF cells (immunoblot); assay type: cell-based; conditions: 50 or 100 μM IU1
Experimental: as §3

[9] = molecular target: T4, Usp14/26S proteasome complexes (Homo sapiens, UniProt P54578); assay: Ub-AMC hydrolysis by VS-proteasomes reconstituted with recombinant Usp14; assay type: biochemical
T4 construct: GST (N, cleaved yes); made in house; host or cells: E. coli Rosetta 2 (DE3) for Usp14
Experimental: Compounds were screened for Usp14/26S inhibition in 384-well low-volume plates in duplicate. Data processing was done by a robust Z-score method and each compound was plotted using Spotfire software. Compounds over the cut-off of Z>5 were mostly autofluorescent and were therefore not counted. To exclude quenching compounds that only affect AMC fluorescence, 312 primary hits were tested for quenching of AMC amine, and pure quenchers were scored as false-positives and excluded from further analysis (FIG. 8B).
The data plot of each experiment was fit into a four parameter logistic model (the Hill-slope model) based on guidelines from the NIH Chemical Genomics Center.

TDP-43 = TDP-43 depletion in MEF cells (immunoblot); assay type: cell-based; conditions: 75 μM IU1
Experimental: as §3

[10] = test system: eight deubiquitinating enzymes of human origin; assay: Deubiquitinase selectivity panel (Ub-AMC hydrolysis); assay type: biochemical; conditions: 17 μM
[11] = test system: glial fibrillary acidic protein (GFAP); assay: GFAP depletion in MEF cells (immunoblot); assay type: cell-based; conditions: MEF cells, 25, 50 or 100 μM IU1
Experimental: as §3

[12] = molecular target: T5, Usp14 that had not been loaded onto a proteasome (Homo sapiens, UniProt P54578); assay: Activity of Usp14 not complexed to the proteasome; assay type: biochemical
T5 construct: GST (N, cleaved yes); made in house; host or cells: E. coli Rosetta 2 (DE3)
T5 sequence (P54578 whole entry): as the sequence (P54578 whole entry) above

[13] = molecular target: T3, Usp14/proteasome complexes; assay: Usp14 binding to purified proteasome (immunoblot); conditions: various concentrations of IU1
From the text: The asterisk (*) denotes a nonspecific signal generated by the anti-Usp14 antibody.

[14] = Hydrogen peroxide toxicity; assay type: cell-based; conditions: data not shown
mCherry-NBR1 = mCherry-NBR1 immunofluorescence in wild-type MEFs; assay type: cell-based; conditions: 200 μM, 6 hr

SMILES: Cc1cc(C(=O)CN2CCCC2)c(C)n1-c1ccc(F)cc1 [IU1, 1-[1-(4-fluorophenyl)-2,5-dimethlypyrrol-3-yl]-2-pyrrolidin-1-ylethanone]
- effect on the IC50 for menadione (HEK293 cells; IU1 50 uM): ~4 fold
- menadione toxicity (HEK293 cells; compound 50 uM): reduced this toxicity substantially
- inhibition of cellular proliferation at 120 μM (MEFs and 293 cells; 120 μM): only a slight inhibition
- inhibition of cellular proliferation at lower concentrations (MEFs and 293 cells; below 120 μM): no apparent inhibition
- covalent IU1-Usp14 adducts (Usp14): failed to detect any covalent IU1-Usp14 adducts
- transcription of UbB (UbB, α6, α7): does not induce the transcription
- transcription of α6 (UbB, α6, α7): does not induce the transcription
- transcription of α7 (UbB, α6, α7): does not induce the transcription
- induction of apoptosis (MEF cells [1]): did not noticeably induce apoptosis
- inhibition of Isopeptidase T (Isopeptidase T (IsoT)): lack of inhibition
- degradation of Ub-cyclin B by Usp14-containing proteasomes ([2]; 34 μM IU1): stimulated the activity of Usp14-containing proteasomes
- substrate degradation or chain trimming by proteasomes that lack Usp14 ([2]; 34 μM IU1): no effect
- cyclin B degradation in the presence of USP14-CA ([2]; catalytically inactive USP14): does not affect cyclin B degradation
- accumulation of oxidized proteins (oxidized proteins): reduced
- time to reach steady-state concentration within cells ([3]; 50 μM added to medium, MEFs): ≤ 1 h
- steady-state concentration within cells ([3]; 50 μM added to medium, MEFs, LC/MS): ~19 µM
- release of internalized compound from wild-type MEF cells ([3]; 50 μM for one hour, then fresh media): rapid release
- concentration in serum-containing media of Usp14−/− MEF cells ([3]; 1 hr to 48 hr): comparable concentration
- integrity of proteasome (proteasome): does not affect the integrity of proteasome
- concentration in serum-containing media of HEK293 cells [4]: comparable concentration
- effect on cell survival upon oxidative stress (MEF cells [5]): show this effect as well
- transcription of Psmb5 gene (murine Psmb5 promoter): does not induce the transcription
- concentration at which effects on cell viability became apparent [6]: over 100 μM
- inhibition of proteasome-bound Uch37 [7]: does not inhibit
- degradation of GFP-ODC (GFP-ODC): little or no effect
- concentration effective at inhibition of chain trimming ([8]; proteasome purified and assayed in presence of ADP): approximately 5 μM
- chain trimming, Usp14/proteasome complexes ([8]; with Usp14, presence of proteasome inhibitors): reduced the chain trimming to a level similar to that of the proteasome complexes that lacked Usp14
- release of ubiquitin chains from cyclin B, proteasomes that lack Usp14 ([8]; without Usp14, presence of proteasome inhibitors): little or no effect
- Tau levels (Tau; MEF cells, 25 to 100 μM, 6 hours): reduced Tau levels at all concentrations tested
- Tau mRNA levels (Tau; MEF cells, 25 to 100 μM, quantitative RT-PCR): No effect
- dependence of Tau degradation stimulation on autophagy (Tau; wild-type MEF, 75 μM IU1 and/or BafA1, 6 hrs): not mediated by autophagy
- ataxin-3 level in cells (ataxin-3): similarly depleted
- lag period of inhibition ([9]; IU1 100 μM added 30 min after 1 μM Ub-AMC, 2.5 nM proteasome, 30 nM USP14): without a detectable lag period
- reversibility of inhibition of Usp14 ([9]; activity after up to three ultrafiltration spins): rapidly reversible
- inhibition of Usp14 deubiquitinase ([9]; proteasome-bound Usp14, Ub-AMC): potent inhibitor of proteasome-bound Usp14
- TDP-43 level in cells (TDP-43): similarly depleted
- inhibition of other tested deubiquitinating enzymes [10]: failed to significantly inhibit
- specificity for USP14 versus Ub-AMC concentration ([10]; lower concentrations of Ub-AMC): observed independently of Ub-AMC concentration
- GFAP level in cells [11]: similarly depleted
- inhibition of Usp14 not complexed to the proteasome [12]: failed to inhibit
- effect on Usp14 complexing with the proteasome [13]: did not antagonize Usp14 complexing with the proteasome
- hydrogen peroxide toxicity [14]: reduced the toxicity

SMILES: CO/C1=C\C(C)=C\[C@@H](C)[C@@H](O)[C@@H](C)C/C(C)=C/C=C/[C@H](OC)[C@@H]([C@@H](C)[C@@H](O)[C@H](C)[C@@]2(O)C[C@@H](O)[C@H](C)[C@@H](C(C)C)O2)OC1=O [bafilomycin A1]
- immunofluorescence signal of mCherry-NBR1 (mCherry-NBR1): significantly increased
